Measured values published in ChEMBL document CHEMBL1144490, “Apoptosis induction and modulation of P-glycoprotein mediated multidrug resistance by new macrocyclic lathyrane-type diterpenoids” (Bioorg Med Chem, 2007).
Converted amounts (≈) assume the structure as drawn.

Tests used:
L5178Y [1] = test: Induction of apoptosis in human MDR1 gene transfected mouse L5178 Y cells assessed as necrosis at 5 ug/mL after 40 mins; assay type: functional
L5178Y [2] = test: Induction of apoptosis in human MDR1 gene transfected mouse L5178 Y cells assessed as early apoptosis at 50 ug/mL after 40 mins; assay type: functional
L5178Y [3] = test: Induction of apoptosis in human MDR1 gene transfected mouse L5178 Y cells assessed as total apoptosis at 5 ug/mL after 40 mins; assay type: functional
L5178Y [4] = test: Induction of apoptosis in human MDR1 gene transfected mouse L5178 Y cells assessed as total apoptosis at 50 ug/mL after 40 mins; assay type: functional
L5178Y [5] = test: Induction of apoptosis in human MDR1 gene transfected mouse L5178 Y cells assessed as early apoptosis at 5 ug/mL after 40 mins; assay type: functional
L5178Y [6] = test: Induction of apoptosis in human MDR1 gene transfected mouse L5178 Y cells assessed as necrosis at 50 ug/mL after 40 mins; assay type: functional
[7] = Antiproliferative activity against human MDR1 gene transfected mouse L5178 Y cells after 72 hrs; assay type: functional; settings: L5178Y, read-out: ID50 (the source's name)
L5178Y [8] = test: Induction of apoptosis in human MDR1 gene transfected mouse L5178 Y cells assessed as early apoptosis at 75 ug/mL after 40 mins; assay type: functional
L5178Y [9] = test: Induction of apoptosis in human MDR1 gene transfected mouse L5178 Y cells assessed as necrosis at 75 ug/mL after 40 mins; assay type: functional
L5178Y [10] = test: Induction of apoptosis in human MDR1 gene transfected mouse L5178 Y cells assessed as total apoptosis at 75 ug/mL after 40 mins; assay type: functional
[11] = molecular target: T1, ATP-dependent translocase ABCB1 (Homo sapiens, UniProt P08183); test: Inhibition of P-gp mediated efflux-pump activity in human MDR1 gene transfected mouse L5178 Y cells at 4 ug/mL by rhodamine 123 accumulation test; assay type: cell-based
T1 sequence (P08183 whole entry): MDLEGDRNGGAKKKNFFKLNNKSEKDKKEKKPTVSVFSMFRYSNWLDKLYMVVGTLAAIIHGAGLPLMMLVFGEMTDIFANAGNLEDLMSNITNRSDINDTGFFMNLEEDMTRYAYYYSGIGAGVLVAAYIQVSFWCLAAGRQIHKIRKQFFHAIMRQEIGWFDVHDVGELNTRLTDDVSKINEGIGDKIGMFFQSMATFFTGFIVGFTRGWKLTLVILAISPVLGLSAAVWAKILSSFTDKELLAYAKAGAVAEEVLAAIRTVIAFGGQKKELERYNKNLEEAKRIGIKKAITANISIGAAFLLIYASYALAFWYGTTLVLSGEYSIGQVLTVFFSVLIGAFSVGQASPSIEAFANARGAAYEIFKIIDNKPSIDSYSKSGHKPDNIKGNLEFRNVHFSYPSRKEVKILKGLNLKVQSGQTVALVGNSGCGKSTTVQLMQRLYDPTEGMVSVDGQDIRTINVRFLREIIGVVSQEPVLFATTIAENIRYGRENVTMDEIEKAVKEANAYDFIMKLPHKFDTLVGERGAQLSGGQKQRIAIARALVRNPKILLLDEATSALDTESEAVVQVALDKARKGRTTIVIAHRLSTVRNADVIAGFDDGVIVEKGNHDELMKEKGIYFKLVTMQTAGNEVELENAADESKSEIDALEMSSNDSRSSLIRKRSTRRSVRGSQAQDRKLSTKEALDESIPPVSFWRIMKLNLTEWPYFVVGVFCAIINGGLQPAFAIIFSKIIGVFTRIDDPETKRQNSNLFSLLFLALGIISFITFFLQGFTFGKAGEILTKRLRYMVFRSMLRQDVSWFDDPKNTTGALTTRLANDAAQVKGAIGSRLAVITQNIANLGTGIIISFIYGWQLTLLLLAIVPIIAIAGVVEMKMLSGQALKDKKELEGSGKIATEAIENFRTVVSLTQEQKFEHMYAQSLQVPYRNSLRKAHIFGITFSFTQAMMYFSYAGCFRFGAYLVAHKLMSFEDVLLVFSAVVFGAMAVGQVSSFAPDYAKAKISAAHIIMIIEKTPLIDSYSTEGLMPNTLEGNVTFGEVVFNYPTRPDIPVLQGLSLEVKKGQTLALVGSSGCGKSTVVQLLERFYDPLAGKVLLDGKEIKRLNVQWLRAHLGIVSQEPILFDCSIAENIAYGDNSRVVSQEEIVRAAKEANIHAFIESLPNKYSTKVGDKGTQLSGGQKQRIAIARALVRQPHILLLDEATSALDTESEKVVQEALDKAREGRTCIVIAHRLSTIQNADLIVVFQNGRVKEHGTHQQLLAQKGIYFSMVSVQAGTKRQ

L5178Y [12] = test: Induction of apoptosis in human MDR1 gene transfected mouse L5178 Y cells assessed as necrosis at 7 ug/mL after 40 mins; assay type: functional
L5178Y [13] = test: Induction of apoptosis in human MDR1 gene transfected mouse L5178 Y cells assessed as total apoptosis at 7 ug/mL after 40 mins; assay type: functional
[14] = molecular target: T1, ATP-dependent translocase ABCB1; test: Inhibition of P-gp mediated efflux-pump activity in human MDR1 gene transfected mouse L5178 Y cells at 40 ug/mL by rhodamine 123 accumulation test; assay type: cell-based
L5178Y [15] = test: Induction of apoptosis in human MDR1 gene transfected mouse L5178 Y cells assessed as early apoptosis at 7 ug/mL after 40 mins; assay type: functional

SMILES	Activity (L5178Y [8]) [%]	Activity (L5178Y [9]) [%]	Activity (L5178Y [10]) [%]	Fluorescence intensity [11]	Activity (L5178Y [12]) [%]	Activity (L5178Y [13]) [%]	Fluorescence intensity [14]	Activity (L5178Y [15]) [%]	also measured
c1ccc2c(c1)Nc1c(ccc3ccccc13)S2									Activity (L5178Y [1]): 16.3%; Activity (L5178Y [2]): 0.02%; Activity (L5178Y [3]): 65.01%; Activity (L5178Y [4]): 98%; Activity (L5178Y [5]): 1.72%; Activity (L5178Y [6]): 1.81%
COc1cccc2c1C(=O)c1c(O)c3c(c(O)c1C2=O)C[C@@](O)(C(=O)CO)C[C@@H]3O[C@H]1C[C@H](N)[C@H](O)[C@H](C)O1 [DOXORUBICIN]									IC50 [7]: 0.35 µg/mL (≈ 0.644 µM)
C/C1=C\[C@@H]2[C@H](CC[C@@]3(C)O[C@@H]3[C@H]3[C@@H](O)[C@@H](C)C[C@]3(OC(=O)/C=C/c3ccccc3)C1=O)C2(C)C [JOLKINOL B]	4.06	0.41	38.83	449.2	1.16	27	649.3	6.91	
CC(=O)OC[C@H]1C[C@H](OC(=O)/C=C/c2ccccc2)C(=O)/C(C)=C/[C@@H]2[C@H](CC[C@@]3(C)O[C@@H]3C[C@H]1O)C2(C)C [LATILAGASCENES A]	33.88	2.16	55.24		0.85	22.7		7.79	
C/C1=C\[C@@H]2[C@H](CC[C@@]3(C)O[C@@H]3C[C@@H](O)[C@@H](CO)C[C@H](OC(=O)/C=C/c3ccccc3)C1=O)C2(C)C [LATILAGASCENES B]	1.38	1.82	96.31		0.79	18.96		5.87	IC50 [7]: 4.58 µg/mL (≈ 9.49 µM)
CC(=O)OC[C@H]1C[C@H](OC(=O)/C=C/c2ccccc2)C(=O)/C(C)=C/[C@@H]2[C@H](CC[C@@]3(C)O[C@@H]3C[C@H]1OC(C)=O)C2(C)C [LATILAGASCENES C]	1.04	3.93	41.31		0.69	21.9		7.8	
C/C1=C\[C@@H]2[C@H](CC[C@@]3(C)O[C@@H]3C[C@@H](O)[C@@H](COC(=O)c3ccccc3)C[C@H](OC(=O)/C=C/c3ccccc3)C1=O)C2(C)C [LATILAGASCENES D]	2.96	6.83	67.97	685.9	1.54	34.7	714	12.7	
CC1(C)[C@@H]2/C=C(\CO)C(=O)[C@@H](OC(=O)/C=C/c3ccccc3)C[C@H](COC(=O)c3ccccc3)[C@H](O)C[C@H]3O[C@]3(C)CC[C@@H]21 [LATILAGASCENES E]				882.2			810.8		
C/C1=C\[C@@H]2[C@H](CC[C@@]3(C)O[C@@H]3C[C@@H](O)[C@@H](C)CC(OC(=O)c3ccccc3)C1=O)C2(C)C (stereo partly specified) [LATILAGASCENES F]				212.6			1029.4		
